Reference: patent US6492374B2, “Benzofuran derivatives, their preparation and use” (H. Lundbeck A/S, priority 1998, dated 2002)

Experiments:
[1] = target: T1, cloned human 5-HT1A receptors (Homo sapiens, UniProt P08908); experiment: Inhibition of 3H-5-CT binding to human 5-HT1A receptors; conditions: cloned human 5-HT1A receptors expressed in HeLa cells (HA7)
T1 construct: expressed in transfected cells; host or cells: HeLa cells (HA7), stably transfected; cell homogenate
T1 sequence (P08908 1-422): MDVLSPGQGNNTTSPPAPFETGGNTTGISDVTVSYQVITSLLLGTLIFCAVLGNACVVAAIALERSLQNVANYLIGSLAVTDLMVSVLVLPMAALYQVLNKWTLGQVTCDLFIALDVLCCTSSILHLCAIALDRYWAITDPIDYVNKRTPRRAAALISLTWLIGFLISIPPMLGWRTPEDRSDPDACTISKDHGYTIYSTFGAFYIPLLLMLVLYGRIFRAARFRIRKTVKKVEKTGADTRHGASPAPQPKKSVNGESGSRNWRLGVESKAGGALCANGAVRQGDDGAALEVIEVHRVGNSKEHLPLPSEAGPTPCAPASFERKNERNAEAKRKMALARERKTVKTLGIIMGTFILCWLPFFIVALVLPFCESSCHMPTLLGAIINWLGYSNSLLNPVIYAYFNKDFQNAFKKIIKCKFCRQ
Method: Inhibition of ^3H-5CT Binding to Human 5-HT1A Receptors
Human 5-HT1A receptors (40 μg of cell homogenate) were incubated for 15 minutes at 37° C. in 50 mM Tris buffer at pH 7.7 in the presence of ^3H-5-CT. Non-specific binding was determined by including 10 μM of metergoline. The reaction was terminated by rapid filtration through Unifilter GF/B filters on a Tomtec Cell Harvester. Filters were counted in a Packard Top Counter.

[2] = tested on: serotonin reuptake (3H-5-HT uptake into whole rat brain synaptosomes); experiment: Inhibition of 3H-5-HT uptake into rat brain synaptosomes; type: biochemical
Method: Inhibition of ^3H-5HT Uptake Into Rat Brain Synaptosomes
Using this method, the ability of drugs to inhibit the accumulation of ^3H-5-HT into whole rat brain synaptosomes is determined in vitro.

Row | melting point [°C] | Compound | IC50 [1] [µM] | Inhibition of serotonin reuptake % inhibition at 100 nM [2] [% inh. at 100 nM] | IC50 [2] [µM]
1 | 160 to 162 | CN(CCCC1(c2ccc(F)cc2)OCc2cc(C#N)ccc21)Cc1cccc2c1OCCO2.O=C(O)C(=O)O (centres unmarked) |  |  | 
2 | 114 to 116 | CN(CCCc1cccc2c1OCCO2)CCCC1(c2ccc(F)cc2)OCc2cc(C#N)ccc21.O=C(O)C(=O)O (single isomer, unassigned; (+)) [Compound 1b, (+)-1-[3-[[3-(1,4-Benzodioxan-5-yl)propyl]methylamino]propyl]-1-(4-fluorophenyl)-1,3-dihydroisobenzofuran-5-carbonitrile oxalate] | 0.012 |  | 
3 | 118 to 120 | CN(CCCC1(c2ccc(F)cc2)OCc2cc(C#N)ccc21)CCc1cccc2c1OCCO2.O=C(O)C(=O)O (centres unmarked) [Compound 1c, 1-[3-[[2-(1,4-Benzodioxan-5-yl)ethyl]methylamino]propyl]-1-(4-fluorophenyl)-1,3-dihydroisobenzofuran-5carbonitrile oxalate] | 0.053 |  | 
4 |  | COc1cccc(CCN(C)CCCC2(c3ccc(F)cc3)OCc3cc(C#N)ccc32)c1 (centres unmarked) [Compound 4b, 1-(4-Fluorophenyl)-1-[3-[[2-(3-methoxyphenyl)ethyl]methylamino]propyl]-1,3-dihydroisobenzofuran-5-carbonitrile] | 0.063 | 59 | 
5 |  | C=CCN(CCCC1(c2ccc(F)cc2)OCc2cc(C#N)ccc21)CCc1c[nH]c2ccccc12 (centres unmarked) [Compound 4h, 1-[3-[[2-(1H-Indolyl-3-yl)ethyl](prop-2-en-1-yl)amino]propyl]-1-(4-fluorophenyl) 1,3-dihydroisobenzofuran-5carbonitrile] | 0.0032 |  | 0.069
6 | 131 to 133 | CN(CCCc1cccc2c1OCCO2)CCCC1(c2ccc(F)cc2)OCc2cc(F)ccc21.O=C(O)C(=O)O (centres unmarked) |  |  | 
7 |  | CCN(CCCC1(c2ccc(F)cc2)OCc2cc(C#N)ccc21)CCc1c[nH]c2c(F)cccc12 (centres unmarked) [Compound 12k] | 0.0036 |  | 0.0084
8 |  | CCN(CCCc1c[nH]c2ccc(C)cc12)CCCC1(c2ccc(F)cc2)OCc2cc(C#N)ccc21 (centres unmarked) [Compound 12o, 1-[3-[Ethyl[3-(5-methyl-1H-indol-3-yl)propyl]amino]propyl]-1-(4-fluorophenyl)-1,3-dihydroisobenzofuran-5-carbonitrile] | 0.0062 | 49 | 
9 |  | C=CCN(CCCC1(c2ccc(F)cc2)OCc2cc(C#N)ccc21)CCc1c[nH]c2c(F)cccc12 (centres unmarked) [Compound 13c, 1-[3-[[2-(7-Fluoro-1H-indol-3-yl)ethyl](prop-2-en-1-yl)amino]propyl]-1-(4-fluorophenyl)-1,3-dihydroisobenzofuran-5-carbonitrile] | 0.0096 |  | 0.012
10 |  | C=CCN(CCCC1(c2ccc(F)cc2)OCc2cc(C#N)ccc21)CCOc1ccccc1 (centres unmarked) [Compound 4i, 1-(4-Fluorophenyl)-1-[3-[[2-phenoxyethyl](prop-2-en-1-yl)amino]propyl]-1,3-dihydroisobenzofuran-5carbonitrile] | 0.0019 | 26 | 
11 |  | CN(CCCc1c[nH]c2ccccc12)CCC[C@@]1(c2ccc(F)cc2)OCc2cc(C#N)ccc21 [Compound 2f, (S)-1-[3-[[3-(1H-Indol-3-yl)propyl]methylamino]propyl]-1-(4-fluorophenyl)-1,3-dihydroisobenzofuran-5-carbonitrile] | 0.0086 |  | 0.014
12 |  | CN(CCCc1c[nH]c2ccc(Br)cc12)CCCC1(c2ccc(F)cc2)OCc2cc(C#N)ccc21 (centres unmarked) [Compound 12aa, 1-[3-[[3-(5-Bromo-1H-indol-3-yl)propyl]methylamino]propyl]-1-(4-fluorophenyl)-1,3-dihydroisobenzofuran-5-carbonitrile] | 0.016 | 37 | 
13 |  | CN(CCCc1c[nH]c2ccc(Cl)cc12)CCCC1(c2ccc(F)cc2)OCc2cc(C#N)ccc21 (centres unmarked) [Compound 12r, 1-[3-[[3-(5-Chloro-1H-indol-3-yl)propyl]methylamino]propyl]-1-(4-fluorophenyl)-1,3-dihydroisobenzofuran-5-carbonitrile] | 0.016 | 47 | 
14 |  | CCN(CCCc1c[nH]c2c(F)cccc12)CCCC1(c2ccc(F)cc2)OCc2cc(C#N)ccc21 (centres unmarked) [Compound 12p, 1-[3-[Ethyl[3-(7-fluoro-1H-indol-3-yl)propyl]amino]propyl]-1-(4-fluorophenyl)-1,3-dihydroisobenzofuran-5carbonitrile] | 0.019 |  | 0.011
